Results taken from PubChem BioAssay AID330 (DTP/NCI, 2004).
“And” between values parts separate entries of the source, which are not always exact repeats. Equal values may be shown once. Inconclusive results and toxic doses are left out.

Tested on: P388 leukemia ip, CD2F1 mice, survival T/C
Assay: NCI In Vivo Anticancer Drug Screen. Data for tumor model P388 Leukemia (intraperitoneal) in CD2F1 (CDF1) mice
Conditions: endpoint: median survival time, higher = longer survival
Summary of the method: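 Mice carrying the transplanted tumor received test compound or vehicle. Survival was recorded in each group, and the value is the treated-group measurement divided by that of the vehicle-treated control group.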

[1] = dose: 50.0 mg/kg/injection, schedule: Q01DX005 (ip), vehicle: saline with Tween-80
[2] = dose: 100.0 mg/kg/injection, schedule: Q01DX005 (ip), vehicle: saline with Tween-80
[3] = dose: 200.0 mg/kg/injection, schedule: Q01DX005 (ip), vehicle: saline with Tween-80
[4] = dose: 50.0 mg/kg/injection, schedule: Q01DX005 (ip), vehicle: saline
[5] = dose: 100.0 mg/kg/injection, schedule: Q01DX005 (ip), vehicle: saline
[6] = dose: 200.0 mg/kg/injection, schedule: Q01DX005 (ip), vehicle: saline
[7] = dose: 25.0 mg/kg/injection, schedule: Q01DX009 (ip), vehicle: saline with Tween-80
[8] = dose: 50.0 mg/kg/injection, schedule: Q01DX009 (ip), vehicle: saline with Tween-80
[9] = dose: 100.0 mg/kg/injection, schedule: Q01DX009 (ip), vehicle: saline with Tween-80
[10] = dose: 200.0 mg/kg/injection, schedule: Q01DX009 (ip), vehicle: saline with Tween-80
[11] = dose: 100.0 mg/kg/injection, schedule: Q04DX002 (ip), vehicle: saline
[12] = dose: 200.0 mg/kg/injection, schedule: Q04DX002 (ip), vehicle: saline
[13] = dose: 60.0 mg/kg/injection, schedule: Q01DX005 (ip), vehicle: saline with Tween-80
[14] = dose: 120.0 mg/kg/injection, schedule: Q01DX005 (ip), vehicle: saline with Tween-80

With CC(=O)OCC1OC(n2c(Br)nc3c(=O)[nH]c(N)nc32)C(OC(C)=O)C1OC(C)=O (configuration not stated) the T/C [1] was 102 % of control, the T/C [2] was 104 % of control and the T/C [3] was 107 % of control.
For C=CCC(OC(=O)c1ccc(Br)cc1)C1(C)OC1C(C)C1CC(O)(C(OC)OC)NC(=O)O1 (configuration not stated), the T/C (dose: 0.25 mg/kg/injection, schedule: Q01DX009 (ip), vehicle: saline + alcohol) was 108 % of control, the T/C (dose: 0.5 mg/kg/injection, schedule: Q01DX009 (ip), vehicle: saline + alcohol) was 107 % of control and the T/C (dose: 1.0 mg/kg/injection, schedule: Q01DX009 (ip), vehicle: saline + alcohol) was 115 % of control.
For NC(N)=NC(=O)c1ccccc1, the T/C [4] was 100 % of control, the T/C [5] was 100 % of control and the T/C [6] was 100 % of control.
For CNC(=O)Oc1cccc(N=CN(C)C)c1, the T/C (dose: 0.93 mg/kg/injection, schedule: Q01DX005 (ip), vehicle: saline) was 97 % of control, the T/C (dose: 1.87 mg/kg/injection, schedule: Q01DX005 (ip), vehicle: saline) was 101 % of control and the T/C (dose: 3.75 mg/kg/injection, schedule: Q01DX005 (ip), vehicle: saline) was 95 % of control.
With NC(=O)C1CCN(Cc2c[nH]c3ccccc23)CC1 the T/C [7] was 104 % of control, the T/C [8] was 100 % of control and the T/C [9] was 104 % of control. The T/C [10] was 102 % of control.
CN(CCN1C(=O)c2c(Cl)c(Cl)c(Cl)c(Cl)c2C1=O)c1ccccc1 was tested, and the T/C (dose: 50.0 mg/kg/injection, schedule: Q01DX001 (ip), vehicle: saline with Tween-80) was 95 % of control, the T/C (dose: 100.0 mg/kg/injection, schedule: Q01DX001 (ip), vehicle: saline with Tween-80) was 91 % of control and the T/C (dose: 200.0 mg/kg/injection, schedule: Q01DX001 (ip), vehicle: saline with Tween-80) was 88 % of control.
CC(C)c1cc(C=C2C(=O)c3ccccc3C2=O)cc(C(C)C)c1O was tested, and the T/C [11] was 100 % of control, the T/C [12] was 100 % of control and the T/C (dose: 400.0 mg/kg/injection, schedule: Q04DX002 (ip), vehicle: saline) was 97 % of control.
With c1csc(C[N+]23CN4CN(CN(C4)C2)C3)c1 the T/C (dose: 130.0 mg/kg/injection, schedule: Q01DX009 (ip), vehicle: saline) was 109 % of control, the T/C (dose: 200.0 mg/kg/injection, schedule: Q01DX009 (ip), vehicle: saline) was 118 % of control and the T/C (dose: 300.0 mg/kg/injection, schedule: Q01DX009 (ip), vehicle: saline) was 123 % of control.
O/N=c1\cc(-c2ccccc2)oc2ccccc12 was tested, and the T/C (dose: 16.7 mg/kg/injection, schedule: Q01DX009 (ip), vehicle: saline with Tween-80) was 97 % of control, the T/C [7] was 102 % of control and the T/C (dose: 37.5 mg/kg/injection, schedule: Q01DX009 (ip), vehicle: saline with Tween-80) was 100 % of control.
Cc1c(-c2cccc(Cl)n2)nc2ccccc2c1C(=O)O was tested, and the T/C (dose: 100.0 mg/kg/injection, schedule: Q04DX002 (ip), vehicle: saline with Tween-80) was 99 % of control, the T/C (dose: 200.0 mg/kg/injection, schedule: Q04DX002 (ip), vehicle: saline with Tween-80) was 99 % of control and the T/C (dose: 400.0 mg/kg/injection, schedule: Q04DX002 (ip), vehicle: saline with Tween-80) was 99 % of control.
With COc1cc(/C=C2\C(=O)C=C(C)CC2(C)C)ccc1O the T/C (dose: 50.0 mg/kg/injection, schedule: Q04DX003 (ip), vehicle: saline with Tween-80) was 95 % of control and the T/C (dose: 100.0 mg/kg/injection, schedule: Q04DX003 (ip), vehicle: saline with Tween-80) was 90 % of control.
In the case of CN1CC(=O)NC2(CCCC2)C1=O, the T/C (dose: 37.5 mg/kg/injection, schedule: Q04DX002 (ip), vehicle: Klucel (hydroxypropylcellulose) (HPC)) is reported as 102 % of control, the T/C (dose: 75.0 mg/kg/injection, schedule: Q04DX002 (ip), vehicle: Klucel (hydroxypropylcellulose) (HPC)) is reported as 101 % of control and the T/C (dose: 150.0 mg/kg/injection, schedule: Q04DX002 (ip), vehicle: Klucel (hydroxypropylcellulose) (HPC)) is reported as 99 % of control. For the same compound, the T/C (dose: 300.0 mg/kg/injection, schedule: Q04DX002 (ip), vehicle: Klucel (hydroxypropylcellulose) (HPC)) was 105 % of control.
CC1(O)c2ccccc2-c2ccccc2C1(C)O (configuration not stated) was tested, and the T/C [1] was 97 % of control, the T/C [2] was 100 % of control and the T/C [3] was 90 % of control.
With CCN(CC)CCCN1CC2CC=CCC2C1 (configuration not stated) the T/C [4] was 98 % of control, the T/C [5] was 100 % of control and the T/C [6] was 105 % of control.
Cc1cc(C(=O)O)ccc1S(=O)(=O)F was tested, and the T/C [13] was 101 % of control and the T/C [14] was 105 % of control.
In the case of COc1ccc(/C(C)=N/[O-])cc1CS[n+]1ccccc1, the T/C (dose: 50.0 mg/kg/injection, schedule: Q01DX005 (ip), vehicle: distilled water + Tween-80 + alcohol) is reported as 104 % of control, the T/C (dose: 100.0 mg/kg/injection, schedule: Q01DX005 (ip), vehicle: distilled water + Tween-80 + alcohol) is reported as 95 % of control and the T/C (dose: 200.0 mg/kg/injection, schedule: Q01DX005 (ip), vehicle: distilled water + Tween-80 + alcohol) is reported as 104 % of control.
COc1cccc(Oc2ccc(C)c[n+]2CC(C)=O)c1 was tested, and the T/C (dose: 25.0 mg/kg/injection, schedule: Q01DX005 (ip), vehicle: saline with Tween-80) was 100 % of control and the T/C [1] was 105 % of control.
With O=S(=O)(SC(S(=O)(=O)C12CC3CC(CC(C3)C1)C2)S(=O)(=O)C12CC3CC(CC(C3)C1)C2)C12CC3CC(CC(C3)C1)C2 (configuration not stated) the T/C [8] was 95 % of control, the T/C [9] was 105 % of control and the T/C [10] was 95 % of control.
For C=C1CCC2C(OC(=O)C2(O)CO)C2C(=C)C(O)CC12 (configuration not stated), the T/C (dose: 9.38 mg/kg/injection, schedule: Q01DX005 (ip), vehicle: Klucel (hydroxypropylcellulose) (HPC)) was 103 % of control, the T/C (dose: 18.75 mg/kg/injection, schedule: Q01DX005 (ip), vehicle: Klucel (hydroxypropylcellulose) (HPC)) was 105 % of control and the T/C (dose: 37.5 mg/kg/injection, schedule: Q01DX005 (ip), vehicle: Klucel (hydroxypropylcellulose) (HPC)) was 100 % of control. The T/C (dose: 75.0 mg/kg/injection, schedule: Q01DX005 (ip), vehicle: Klucel (hydroxypropylcellulose) (HPC)) was 104 % of control and the T/C (dose: 150.0 mg/kg/injection, schedule: Q01DX005 (ip), vehicle: Klucel (hydroxypropylcellulose) (HPC)) was 113 % of control.
In the case of CCCCCCCCCCCCCCCCCC(=O)Nc1ccn(C2OC(CO)C(O)C2O)c(=O)n1 (configuration not stated), the T/C (dose: 6.25 mg/kg/injection, schedule: Q01DX009 (ip), vehicle: saline with Tween-80) is reported as 196 % of control, the T/C (dose: 12.5 mg/kg/injection, schedule: Q01DX009 (ip), vehicle: saline with Tween-80) is reported as 177 % of control and 227 % of control (2×) and the T/C [7] is reported as 113 % of control and 267 % of control and 270 % of control. For the same compound, the T/C [8] was 195 % of control and 267 % of control and 270 % of control and the T/C [9] was 86 % of control and 92 % of control.
With CCC(CN)C1=Nc2ccccc2C1 (configuration not stated) the T/C (dose: 25.0 mg/kg/injection, schedule: Q04DX003 (ip), vehicle: saline) was 101 % of control, the T/C (dose: 50.0 mg/kg/injection, schedule: Q04DX003 (ip), vehicle: saline) was 96 % of control and the T/C (dose: 100.0 mg/kg/injection, schedule: Q04DX003 (ip), vehicle: saline) was 103 % of control and 111 % of control.
With CC12C(=O)OC(=O)C1(O)C1c3ccccc3C2c2ccccc21 (configuration not stated) the T/C (dose: 50.0 mg/kg/injection, schedule: Q01DX005 (ip), vehicle: Klucel (hydroxypropylcellulose) (HPC)) was 101 % of control, the T/C (dose: 100.0 mg/kg/injection, schedule: Q01DX005 (ip), vehicle: Klucel (hydroxypropylcellulose) (HPC)) was 101 % of control and the T/C (dose: 200.0 mg/kg/injection, schedule: Q01DX005 (ip), vehicle: Klucel (hydroxypropylcellulose) (HPC)) was 101 % of control.
In the case of COC(=O)C1CC2C(=O)N(C)C(Br)C(Br)C12 (configuration not stated), the T/C [11] is reported as 101 % of control and the T/C [12] is reported as 95 % of control.
With O=[N+]([O-])c1ccccc1OCC(O)CCl (configuration not stated) the T/C [8] was 102 % of control and the T/C [9] was 99 % of control.
For c1ccc(-c2n[nH]c(-c3[nH]nc(-c4ccccc4)c3-c3ccccc3)c2-c2ccccc2)cc1, the T/C [13] was 100 % of control, the T/C [14] was 103 % of control and the T/C (dose: 240.0 mg/kg/injection, schedule: Q01DX005 (ip), vehicle: saline with Tween-80) was 101 % of control.
In the case of C[C@@H]1CC(c2ccc(Cl)cc2)[C@@H](c2ccccc2)C(=O)O1 (some centres not stated), the T/C (dose: 100.0 mg/kg/injection, schedule: Q04DX003 (ip), vehicle: Klucel (hydroxypropylcellulose) (HPC)) is reported as 100 % of control, the T/C (dose: 200.0 mg/kg/injection, schedule: Q04DX003 (ip), vehicle: Klucel (hydroxypropylcellulose) (HPC)) is reported as 99 % of control and the T/C (dose: 400.0 mg/kg/injection, schedule: Q04DX003 (ip), vehicle: Klucel (hydroxypropylcellulose) (HPC)) is reported as 97 % of control.
Cc1ccc(S(=O)(=O)NCc2cccc(CNS(=O)(=O)c3ccc(C)cc3)c2)cc1 was tested, and the T/C [8] was 104 % of control, the T/C [9] was 89 % of control and the T/C [10] was 100 % of control.
